Experimental data: article PMC10693528, “A high-throughput metabolomics in vitro platform for the characterization of hepatotoxicity” (Cell Biology and Toxicology, 2023)
Marks after values point to notes of the source that are not given here.

Test system: HepG2 cells
Test: Range finder cell viability (CellTiter-Glo, ATP) dose response
Type: cell-based, human
Settings: estimated from ATP dose response curve, 48 h, rounded; for EC50: Homo sapiens, HepG2
Protocol: HepG2 cells (ECACC, UK, maximum passage number 9) were maintained and grown on Dulbecco’s MEM media supplemented with 1% v/v of penicillin/streptomycin, L-glutamine (200 mM, 1% v/v), non-essential amino acids (100x, 1% v/v), and 10% FBS (PAN-Biotech, Aidenbach, Germany) in 75 cm^2 culture flasks (TPP, Switzerland). For cell passaging (~ 80% confluency) media was removed and cells were washed twice with pre-warmed calcium and magnesium free Dulbecco’s PBS (PAN-Biotech, Aidenbach, Germany). Trypsin was used for cell detachment. Then, 20 mL culture medium was added, and single-cell suspensions were obtained by passing the suspension through a Combitip (Eppendorf, Germany). A fraction of the cell suspension was then transferred to a new culture vessel. For experiments, 15,000 cells per well (passage 5-9) were seeded in 96-well flat-bottom plates (TPP, Switzerland) and incubated for 24 h for cell attachment (37 °C and 5% CO^2). Afterwards, culture media were exchanged, test substances applied, and plates incubated for 48 h (37 °C and 5% CO^2).
In order to define appropriate dose levels, range finder experiments were performed prior to metabolome experiments. Substances were administered to HepG2 cells in increasing concentrations and incubated for 48 h (6 replicates per concentration). Viability and cytotoxicity tests were performed as described previously. Luminescence values resulting from CellTiter-Glo® assays were used to build dose response curves. Curve fitting and effective concentrations (ECs) values were calculated in R using three-parameter Weibull model (W1.3). To obtain a full metabolome-based dose-response effect, five concentrations (EC1, EC5, EC15, EC50, EC85) were selected for metabolome experiments (Table 2). […] Calculated ECs values were rounded to the nearest integer number for dose selection.

Which EC50 does the source give for `CC(=O)N1CCN(c2ccc(OCC3COC(Cn4ccnc4)(c4ccc(Cl)cc4Cl)O3)cc2)CC1` (stereo not shown) [Ketoconazole] here?
The EC50 was 10 µM.

What about the EC1 of the same compound?
Its EC1 is 5^b μM.

What about the EC5 of the same compound?
Its EC5 is 0.2 µM.

And the EC15?
Its EC15 is 1 µM.

What about the EC85 of the same compound?
Its EC85 is 50 µM.

What does the source list for `O=C(O)c1cc(Oc2ccc(C(F)(F)F)cc2Cl)ccc1[N+](=O)[O-]` [Acifluorfen]?
EC50: 500 µM; EC1: 50 µM; EC5: 100 µM; EC15: 200 µM; EC85: 800 µM

Which results are given for `O=c1cc(-c2ccccc2)oc2ccc3ccccc3c12` [β-naphthoflavone]?
EC50: 100 µM; EC1: 0.1 µM; EC5: 1 µM; EC15: 10 µM; EC85: 700 µM

How did the EC50 turn out when `CCC(CC)Nc1c([N+](=O)[O-])cc(C)c(C)c1[N+](=O)[O-]` [Pendimethalin] was run?
The EC50 was 94 µM.

And the EC1?
Its EC1 is 24 µM.

And the EC5?
The EC5 was 39 µM.

What about the EC15 of the same compound?
Its EC15 is 56 µM.

And the EC85?
The EC85 was 157 µM.

Which EC50 does the source give for `Cc1cccc(Nc2cc(Cl)nc(SCC(=O)O)n2)c1C` [Wy-14643] here?
Its EC50 is 500 µM.

And the EC1?
Its EC1 is 25 µM.

What about the EC5 of the same compound?
The EC5 was 50 µM.

And the EC15?
Its EC15 is 150 µM.

What about the EC85 of the same compound?
The EC85 was 1000 µM.
